Source: patent US8158625B2, “Bicyclic indole-pyrimidine PI3K inhibitor compounds selective for P110 delta, and methods of use” (Genentech, Inc., priority 2009, dated 2012)

How the values were obtained:
[1] = molecular target: T1, p110 alpha (Homo sapiens, UniProt P42336); test: PI3K isoform inhibition assay (fluorescence polarization), p110 alpha, used for delta/alpha selectivity; details: ratio of biochemical IC50 values
T1 construct: purchased Upstate Group, Millipore; Dundee, UK
Protocol: (§1) PI3K enzymatic activity was assayed by measuring the amount of product phosphatidylinositol 3,4,5-phosphate (PIP3) formed from substrate 4,5 phosphatidylinositol 4,5-phosphate (PIP2) using a fluorescence polarization displacement assay. The decrease in fluorescence polarization of a fluorescent PIP3 probe is measured as it is displaced from a PIP3-binding protein GRP-1 detector by PI3K-catalyzed product. Assays were conducted in 384-well black Proxiplates in the presence of 10 mM Tris (pH 7.5), 50 mM NaCl, 4 mM MgCl2, 5% glycerol, 25 μM ATP, 10 μM PIP2 (Echelon Biosciences), 0.05% 3-[(3-cholamidopropyl)dimethylammonio]-1-propanesulfonate, 1 mM dithiothreitol, and 2% DMSO. The kinase reactions were initiated by the addition of 40 ng/mL p110α/p85α, 300 ng/mL p110β/p85α, 40 ng/mL p110γ, or 40 ng/mL p110δ/p85α (Upstate Group, Millipore; Dundee, UK), and 10 μM PIP2 (Echelon Biosciences) to the wells. The reactions were stopped at timepoints that yielded a fixed change in fluorescence polarization consistent with initial rate conditions (typically 30 minutes), by the addition of 12.5 mM EDTA, 100 nM GRP-1 detector, and 5 nM tetramethylrhodamine-labeled PIP3 (TAMRA-PIP3; Echelon Biosciences). After 60 minutes of incubation at room temperature to allow equilibration of labeled and unlabeled PIP3 binding, the parallel and perpendicular components of the fluorescence emissions from each sample were measured at an excitation wavelength of 530 nm and an emission wavelength of 590 nm using an Envision fluorescent plate reader with a rhodamine filter (PerkinElmer Life and Analytical Sciences; Wellesley, Mass.). The assay is capable of detecting 0.1-2.0 μM PIP3 product. The IC50 values were obtained by fitting the dose-dependent inhibition data to a 4-parameter equation using Assay Explorer software (MDL, San Ramon, Calif.). […]
The same protocol was used to establish IC50 values for p110α (alpha) PI3K binding. […]

[2] = tested on: production of CD69 by B lymphocytes in human whole blood activated with goat F(ab')2 anti-human IgM; test: CD69 Whole Blood Assay; type: cell-based; details: Lymphocyte, anti-IgM stimulated, CD69 positive of CD20 positive cells, 20 hours
Source text: There is good evidence that B-cells play a key role in the pathogenesis of autoimmune and/or inflammatory disease. Protein-based therapeutics that deplete B cells such as Rituxan are effective against autoantibody-driven inflammatory diseases such as rheumatoid arthritis (Rastetter et al. (2004) Annu Rev Med 55:477). CD69 is the early activation marker in leukocytes including T cells, thymocytes, B cells, NK cells, neutrophils, and eosinophils. The CD69 human whole blood assay (Example 903) determines the ability of compounds to inhibit the production of CD69 by B lymphocytes in human whole blood activated by crosslinking surface IgM with goat F(ab′)2 anti-human IgM.
Human blood is obtained from healthy volunteers, with the following restrictions: 1 week drug-free, non-smokers. Blood (approximately 20 mls to test 8 compounds) is collected by venipuncture into Vacutainer tubes with sodium heparin.
Solutions of Formula I compounds at 1000 or 2000 μM in PBS (20×), are diluted by three-fold serial dilutions in 10% DMSO in PBS for a nine point dose-response curve. An aliquot of 5.5 μl of each compound is added in duplicate to a 2 ml 96-well plate; 5.5 μl of 10% DMSO in PBS is added as control and no-stimulus wells. Human whole blood-HWB (100 μl) is added to each well. After mixing the plates are incubated at 37° C., 5% CO2, 100% humidity for 30 minutes. Goat F(ab′)2 anti-human IgM (10 μl of a 500 μg/ml solution, 50 μg/ml final) is added to each well (except the no-stimulus wells) with mixing and the plates are incubated for an additional 20 hours. At the end of the 20 hour incubation, samples are incubated with florescent labeled antibodies for 30 minutes, at 37° C., 5% CO2, 100% humidity. Include induced control, unstained and single stains for compensation adjustments and initial voltage settings. Samples are then lysed with Pharmingen Lyse according to the manufacturer's instructions. Samples are then transferred to a 96 well plate suitable to be run on the AMS 96 well system on the BD Calibur FACs machine. Data acquired and Mean Fluorescence Intensity values were obtained using Cell Quest Software. Results are initially analyzed by FACS analysis software (Flow Jo). […] The IC50 values are calculated by ActivityBase using Xlfit version 3, equation 201.

[3] = molecular target: T2, p110 delta (Homo sapiens, UniProt O00329); test: PI3K isoform inhibition assay (fluorescence polarization), p110 delta; type: biochemical; details: p110 delta binding IC50, Example 901
T2 construct: purchased Upstate Group, Millipore; Dundee, UK
T2 sequence (O00329 whole entry, canonical isoform): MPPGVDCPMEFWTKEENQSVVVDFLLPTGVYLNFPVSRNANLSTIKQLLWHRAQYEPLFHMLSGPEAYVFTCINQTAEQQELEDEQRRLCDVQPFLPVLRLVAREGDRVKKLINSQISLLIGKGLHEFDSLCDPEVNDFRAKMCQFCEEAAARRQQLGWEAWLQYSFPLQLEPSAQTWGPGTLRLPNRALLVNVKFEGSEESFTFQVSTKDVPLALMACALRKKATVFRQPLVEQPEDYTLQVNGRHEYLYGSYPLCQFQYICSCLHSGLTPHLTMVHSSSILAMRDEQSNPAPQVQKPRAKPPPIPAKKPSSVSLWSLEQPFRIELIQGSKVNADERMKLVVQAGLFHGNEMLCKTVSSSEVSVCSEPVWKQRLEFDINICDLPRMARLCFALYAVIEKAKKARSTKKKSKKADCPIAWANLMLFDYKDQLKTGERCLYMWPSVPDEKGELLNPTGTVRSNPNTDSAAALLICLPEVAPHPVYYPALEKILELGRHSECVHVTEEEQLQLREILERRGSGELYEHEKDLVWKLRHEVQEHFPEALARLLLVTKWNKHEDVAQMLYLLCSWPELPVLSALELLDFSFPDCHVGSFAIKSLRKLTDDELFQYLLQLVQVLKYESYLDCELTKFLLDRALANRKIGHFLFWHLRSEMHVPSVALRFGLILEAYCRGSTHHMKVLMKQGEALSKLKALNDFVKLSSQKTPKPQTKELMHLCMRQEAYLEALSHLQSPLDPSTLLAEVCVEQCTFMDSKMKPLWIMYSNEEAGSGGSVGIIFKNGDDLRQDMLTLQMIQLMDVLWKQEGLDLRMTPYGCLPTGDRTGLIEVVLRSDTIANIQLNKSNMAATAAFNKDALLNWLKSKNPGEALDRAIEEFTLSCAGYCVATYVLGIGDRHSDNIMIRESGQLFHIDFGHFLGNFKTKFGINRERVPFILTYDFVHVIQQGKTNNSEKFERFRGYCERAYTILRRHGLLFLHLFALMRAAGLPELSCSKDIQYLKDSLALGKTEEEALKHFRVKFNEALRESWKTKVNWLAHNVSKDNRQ
T2 sequence (P27986 whole entry partner, canonical isoform): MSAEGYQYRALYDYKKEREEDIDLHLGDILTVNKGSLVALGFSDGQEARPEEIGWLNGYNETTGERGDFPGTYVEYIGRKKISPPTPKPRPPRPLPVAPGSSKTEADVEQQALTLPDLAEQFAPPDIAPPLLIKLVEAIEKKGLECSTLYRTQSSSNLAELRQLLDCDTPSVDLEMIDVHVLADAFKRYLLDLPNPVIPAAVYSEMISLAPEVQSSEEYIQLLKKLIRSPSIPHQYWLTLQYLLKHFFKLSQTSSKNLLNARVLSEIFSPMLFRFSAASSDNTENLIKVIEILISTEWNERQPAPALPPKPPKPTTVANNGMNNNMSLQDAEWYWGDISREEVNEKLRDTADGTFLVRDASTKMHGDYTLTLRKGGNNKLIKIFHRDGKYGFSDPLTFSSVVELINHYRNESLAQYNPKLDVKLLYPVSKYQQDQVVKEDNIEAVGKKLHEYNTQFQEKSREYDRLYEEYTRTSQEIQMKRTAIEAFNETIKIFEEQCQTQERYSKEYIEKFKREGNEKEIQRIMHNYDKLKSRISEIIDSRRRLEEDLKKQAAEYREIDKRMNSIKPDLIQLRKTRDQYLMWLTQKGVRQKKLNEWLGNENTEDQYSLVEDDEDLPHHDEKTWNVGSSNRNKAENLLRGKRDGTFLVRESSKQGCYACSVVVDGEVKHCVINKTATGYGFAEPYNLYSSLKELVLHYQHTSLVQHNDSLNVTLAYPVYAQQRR
Protocol: as §1
Recombinant PI3K p110 isoforms alpha, beta, and delta may be prepared and purified according to US 2008/0275067 from recombinant PI3K heterodimeric complexes consisting of a p110 catalytic subunit and a p85 regulatory subunit overexpressed using the BAC-TO-BAC® HT baculovirus expression system (GIBCO/BRL), and then purified for use in biochemical assays. The four Class I PI 3-kinases are cloned into baculovirus vectors as follows:
p110 delta: A FLAG™-tagged (Eastman Kodak Co., U.S. Pat. No. 4,703,004; U.S. Pat. No. 4,782,137; U.S. Pat. No. 4,851,341) version of human p110.delta (Chantry et al., J. Biol. Chem. (1997) 272:19236-41) is subcloned using standard recombinant DNA techniques into the BamH1-Xba1 site of the insect cell expression vector pFastbac HTb (Life Technologies, Gaithersburg, Md.), such that the clone is in frame with the His tag of the vector.

T1 sequence (P42336 whole entry, canonical isoform): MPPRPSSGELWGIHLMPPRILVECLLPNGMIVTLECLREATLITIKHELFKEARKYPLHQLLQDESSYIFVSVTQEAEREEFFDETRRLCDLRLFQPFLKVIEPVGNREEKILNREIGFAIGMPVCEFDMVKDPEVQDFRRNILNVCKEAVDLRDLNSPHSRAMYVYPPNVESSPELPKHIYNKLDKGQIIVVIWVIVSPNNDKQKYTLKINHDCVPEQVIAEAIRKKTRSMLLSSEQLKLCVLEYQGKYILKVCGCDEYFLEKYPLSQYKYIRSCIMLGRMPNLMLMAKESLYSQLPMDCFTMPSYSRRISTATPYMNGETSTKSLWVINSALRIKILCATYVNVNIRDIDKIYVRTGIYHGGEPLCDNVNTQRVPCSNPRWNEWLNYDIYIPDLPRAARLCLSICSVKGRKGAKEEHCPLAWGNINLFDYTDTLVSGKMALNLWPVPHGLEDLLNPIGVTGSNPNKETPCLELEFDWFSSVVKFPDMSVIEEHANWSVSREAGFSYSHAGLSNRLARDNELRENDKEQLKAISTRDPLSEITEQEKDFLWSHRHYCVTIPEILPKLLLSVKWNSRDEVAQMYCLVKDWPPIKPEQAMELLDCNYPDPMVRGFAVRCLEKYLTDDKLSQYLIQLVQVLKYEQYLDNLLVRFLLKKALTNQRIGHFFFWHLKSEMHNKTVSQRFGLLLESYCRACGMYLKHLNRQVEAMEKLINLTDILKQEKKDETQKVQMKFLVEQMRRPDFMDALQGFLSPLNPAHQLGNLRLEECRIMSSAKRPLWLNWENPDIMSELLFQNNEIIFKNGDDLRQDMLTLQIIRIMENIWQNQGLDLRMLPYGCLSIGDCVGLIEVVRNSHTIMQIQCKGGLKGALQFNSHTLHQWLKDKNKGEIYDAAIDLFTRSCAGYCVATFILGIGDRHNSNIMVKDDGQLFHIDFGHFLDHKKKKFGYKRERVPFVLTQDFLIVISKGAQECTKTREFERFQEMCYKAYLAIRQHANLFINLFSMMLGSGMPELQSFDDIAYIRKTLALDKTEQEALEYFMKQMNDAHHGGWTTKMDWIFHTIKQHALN
T1 sequence (P27986 whole entry partner, canonical isoform): as the sequence (P27986 whole entry partner, canonical isoform) above

| Structure (SMILES) | IC50 p110 alpha/IC50 p110 delta [1] | IC50 [2] [nM] | IC50 [3] [nM] |
| --- | --- | --- | --- |
| CN(C)C1CCN(Cc2cc3nc(-n4ccc5ccccc54)nc(N4CCOCC4)c3s2)CC1 [Compound 103, 1-((2-(1H-indol-1-yl)-4-morpholinothieno[3,2-d]pyrimidin-6-yl)methyl)-N,N-dimethylpiperidin-4-amine] | 54 |  | 10.4 |
| Cn1c(CN2CCC(N3CCOCC3)CC2)nc2c(N3CCOCC3)nc(-c3c[nH]c4ccccc34)nc21 [Compound 104, 4-(1-((2-(1H-indol-3-yl)-9-methyl-6-morpholino-9H-purin-8-yl)methyl)piperidin-4-yl)morpholine] | 105 | 623 | 47.7 |
| CN(C)C1CCN(Cc2cc3nc(-c4c[nH]c5ccc(F)cc45)nc(N4CCOCC4)c3s2)CC1 [Compound 113, 1-((2-(5-fluoro-1H-indol-3-yl)-4-morpholinothieno[3,2-d]pyrimidin-6-yl)methyl)-N,N-dimethylpiperidin-4-amine] | 13 |  | 102 |
| O=C1COC2(CCN(Cc3cc4nc(-c5c[nH]c6ccccc56)nc(N5CCOCC5)c4s3)CC2)CN1 [Compound 116, 9-((2-(1H-indol-3-yl)-4-morpholinothieno[3,2-d]pyrimidin-6-yl)methyl)-1-oxa-4,9-diazaspiro[5.5]undecan-3-one] | 25 |  | 55 |
| c1ccc2c(-c3nc(N4CCOCC4)c4nc(CN5CC(N6CCOCC6)C5)sc4n3)c[nH]c2c1 [Compound 117, 4-(5-(1H-indol-3-yl)-2-((3-morpholinoazetidin-1-yl)methyl)thiazolo[5,4-d]pyrimidin-7-yl)morpholine] | 198 | 84 | 2 |
| CN(C)[C@@H]1CCN(Cc2nc3c(N4CCOCC4)nc(-c4c[nH]c5ccccc45)nc3n2C)C[C@@H]1F [Compound 122, (3S,4R)-1-((2-(1H-indol-3-yl)-9-methyl-6-morpholino-9H-purin-8-yl)methyl)-3-fluoro-N,N-dimethylpiperidin-4-amine] | 96 | 188 | 7.5 |
| CC(C)(OCCN1CCCC1)c1cc2nc(-c3c[nH]c4ccccc34)nc(N3CCOCC3)c2s1 [Compound 125] | 63 |  | 8.4 |
| CC(C)(C(N)=O)N1CCN(Cc2cc3nc(-c4c(C#N)[nH]c5ccccc45)nc(N4CCOCC4)c3s2)CC1 [Compound 129, 2-(4-((2-(2-cyano-1H-indol-3-yl)-4-morpholinothieno[3,2-d]pyrimidin-6-yl)methyl)piperazin-1-yl)-2-methylpropanamide] | 238 |  | 3.4 |

More lines, now with the values ahead:

| IC50 p110 alpha/IC50 p110 delta [1] | IC50 [2] [nM] | IC50 [3] [nM] | Structure (SMILES) |
| --- | --- | --- | --- |
| 101 | 17.3 |  | CN(C)C1CCN(Cc2cc3nc(-c4c[nH]c5ccccc45)nc(N4CCOCC4)c3s2)CC1 [Compound 101, 1-((2-(1H-indol-3-yl)-4-morpholinothieno[3,2-d]pyrimidin-6-yl)methyl)-N,N-dimethylpiperidin-4-amine] |
| 34 | 1700 | 20.8 | CN(C)C1CCN(Cc2cc3nc(N4CCc5ccccc54)nc(N4CCOCC4)c3s2)CC1 [Compound 102, 1-((2-(indolin-1-yl)-4-morpholinothieno[3,2-d]pyrimidin-6-yl)methyl)-N,N-dimethylpiperidin-4-amine] |
| 68 | 950 | 23.6 | Cc1cc2cc(F)ccc2n1-c1nc(N2CCOCC2)c2sc(CN3CCC(N(C)C)CC3)cc2n1 [Compound 119, 1-((2-(5-fluoro-2-methyl-1H-indol-1-yl)-4-morpholinothieno[3,2-d]pyrimidin-6-yl)methyl)-N,N-dimethylpiperidin-4-amine] |
| >160 |  | 616 | Cn1c(CN2CCC(C(C)(C)O)CC2)nc2c(N3CCOCC3)nc(-c3c[nH]c4cc(F)ccc34)nc21 [Compound 124, 2-(1-((2-(6-fluoro-1H-indol-3-yl)-9-methyl-6-morpholino-9H-purin-8-yl)methyl)piperidin-4-yl)propan-2-ol] |
| 186 | 891 | 29 | COCc1cc2ccccc2n1-c1nc(N2CCOCC2)c2nc(CN3CCC(C(C)(C)O)CC3)n(C)c2n1 [Compound 127, 2-(1-((2-(2-(methoxymethyl)-1H-indol-1-yl)-9-methyl-6-morpholino-9H-purin-8-yl)methyl)piperidin-4-yl)propan-2-ol] |
| 37 |  | 22 | CN(C)C1CCN(Cc2cc3nc(-n4ccc5cc(O)ccc54)nc(N4CCOCC4)c3s2)CC1 [Compound 132, 1-(6-((4-(dimethylamino)piperidin-1-yl)methyl)-4-morpholinothieno[3,2-d]pyrimidin-2-yl)-1H-indol-5-ol] |
| 265 | 4600 | 20 | Cn1c(CN2CCC(C(C)(C)O)CC2)nc2c(N3CCOCC3)nc(-n3c(C#N)cc4ccccc43)nc21 [Compound 136, 1-(8-((4-(2-hydroxypropan-2-yl)piperidin-1-yl)methyl)-9-methyl-6-morpholino-9H-purin-2-yl)-1H-indole-2-carbonitrile] |
